Experimental findings from US20220127297A1, “Novel Antibacterial 3"-Derivatives Of 4,6-Disubstituted 2,5-Dideoxystreptamine Aminoglycoside Antibiotics” (AGILeBiotics B.V., priority 2018, published 2022) are described below.

Each structure is given as a SMILES string. In brackets after ≈: the same amount, converted by molar mass. Some results are limits rather than exact numbers.

Test [1] deals with Escherichia coli (ATCC 700336). Nature of the test: MIC against the strain of the urinary tract infection model. The test is classed as cell-based. The conditions noted are these: ATCC700336.
The subject of test [2] is Escherichia coli ATCC700336. Nature of the test: Urinary tract infection model. In kind it is in vivo, female C3H/HeNRj mice. The conditions noted are these: for Change from vehicle group / Avg. Log CFU/g (kidney pair): SC, QD; for Change from vehicle group: Avg. Log CFU/g (kidney pair) vs vehicle; for Avg. Log CFU/g (kidney pair): kidneys 24 hours post treatment. On the procedure: 4.3 Urinary Tract Infection Model (Escherichia coli ATCC700336)
Two compounds, i.e. ABX5006 and ABX5026, and a comparator antibiotic (gentamicin sulfate; Cat. No. G4918, Sigma Aldrich) were tested in a mouse model of urinary tract infection with Escherichia coli ATCC700336.
Urinary tract infection model: Pathogen-free female C3H/HeNRj mice (8 mice per dosing group) weighing 24±4 g were used.
For subcutaneous treatment, pre-weighed reference compound (gentamicin sulfate) was dissolved in 0.9% sodium chloride solution, to reach a final concentration of 1.5 mg/mL for a dose of 15 mg/kg (group 3) or 3.0 mg/mL for a dose of 30 mg/kg (group 2). Each mouse was infected transurethral with Escherichia coli ATCC700336 (5.0×10^1 CFU/100 μL/mouse), under light ketamine/xylazine anesthesia. Mice were water deprived 1.5 hours prior to infection and 1 hour post infection.
Animals were dosed subcutaneously once either with gentamicin (groups 2-3), ABX5006 (groups 4-5), ABX5026 (groups 6-7) or vehicle—PBS (group 1) 24 hours post infection.
Both kidneys were aseptically removed and placed into pre-weighed sterile Precellys test tube containing 2 mL of sterile PBS. Post-sampling, Precellys test tubes were weighed once again. Kidneys were homogenized in sterile PBS by Precellys Evolution, homogenizer, BERTIN Technologies, and serially diluted for CFU determination. Kidney pairs of one animal will represent one sample.
Supplies/Chemicals. Tryptic Soy Agar (BD Cat. no. 236950, Becton Dickinson), Trypticase Soy Broth (BD Cat. no. 211768, Becton Dickinson), 2 mL syringes (BD Plastipak, Ref. 300185, Becton Dickinson), 1 mL syringes (BD Plastipak, Ref. 300013, Becton Dickinson), Sterile, single use needles (BD MICROLANCE, 27 G ¾, Nr. 20 ref. 300220, Becton Dickinson), Sterile, single use needles (BD MICROLANCE, 25 G 1, Nr. 18 ref. 300400, Becton Dickinson), Narkamon (100 mg/mL ketamine chloride) (Bioveta, a.s., Czech Republic), Xylazine 2% (Alfasan International B.V., Woerden, Netherlands), Saline (HZ™, serial no.: 1422115), PBS (Sigma, cat. no. P4417, Germany), Precellys lysing kit (ref. no. KT03961-1-302.7, Bertin technologies, France).
Inoculum preparation for intramuscular infection. Escherichia coli ATCC 700336 was grown on Tryptic Soy Agar plate and incubated for 18-20 h at 37° C. Bacterial agar growth was suspended to 1.0×10^10 colony-forming units (CFU)/mL in adequate volume of tryptic soy broth (TSB), and the inoculum was held at 4° C. until it was used for infection.
CFU determination. Kidney pairs were homogenized using a Precellys Evolution homogenizer (Bertin Instruments).

Test [3] has as its system Klebsiella pneumoniae ATCC 43816. Nature of the test: Murine neutropenic thigh model of infection. The test is classed as in vivo, male CD-1 mice. The conditions noted are these: for Avg. Log CFU/g thigh: 24 h post infection; for survival rate: first study, vehicle group 50% mortality; for Avg. Log CFU/g: thigh, 24 hours post infection. How it is done:
4.1 Murine Neutropenic Thigh Model of Infection (Kiebsiella Pneumoniae ATCC 43816)
A comparator antibiotic (meropenem; Cat. No. 1392454, USP) was used during both studies.
During the first study ABX5006 and ABX5020 were tested at a dose of 64 mg/kg (group 5 for ABX5006, group 8 for ABX5020), 16 mg/kg (group 4 for ABX5006, group 7 for ABX5020) and of 4 mg/kg (group 3 for ABX5006, group 6 for ABX5020).
During a second study ABX5026 and ABX5039 were tested at a dose of 4 mg/kg (group 5 for ABX5026, group 8 for ABX5039), 1 mg/kg (group 4 for ABX5026, group 7 for ABX5039) and of 0.25 mg/kg (group 3 for ABX5026, group 6 for ABX5039).
Animals were dosed subcutaneously (10 mL/kg) twice with 8 h interval. […] A CFU count below limit of detection (LOD=1.0×10^2 CFU/mL) was substituted with the value 0 in order to perform statistical analysis.
Inoculum preparation for intramuscular infection. The strain was streaked out onto MH agar.

Where [4] appears, read: Log CFU/g thigh, dose 4 mg/kg SC BID.
Where [5] appears, read: Log CFU/g thigh, dose 16 mg/kg SC BID.
Where [6] appears, read: Log CFU/g thigh, dose 64 mg/kg SC BID.
Where [7] appears, read: dose 0.25 mg/kg, SC, BID, Avg. Log CFU/g thigh vs vehicle.
The mark [8] stands for this setting: dose 1 mg/kg, SC, BID, Avg. Log CFU/g thigh vs vehicle.
[9] abbreviates: dose 4 mg/kg, SC, BID, Avg. Log CFU/g thigh vs vehicle.

By MIC is commonly meant the smallest concentration in the dilution series that meets the test's criterion for growth inhibition. Compound `N=C(N)NC1C(O)[C@@H](CO)OC(OC2C(F)[C@H](O[C@H]3OC(CN)[C@@H](O)CC3N)C(N)C[C@H]2NC(=O)[C@@H](O)CCN)[C@@H]1O` (some centres unmarked) [ABX5006, Tobra-AHB-F-Gua] displayed a minimal inhibitory concentration (MIC) in test [1] of 0.25 µg/mL (≈ 0.408 µM). In addition, the figures for the “CFU count reduction in kidneys in comparison to the vehicle control group” value in test [2] (dose 15 mg/kg SC QD) and in test [2] (dose 30 mg/kg SC QD) were 1.38 log 10 and 1.53 log 10, respectively. The “Change from vehicle group” value in test [2] (dose 15 mg/kg) is given as 1.38; in test [2] (dose 30 mg/kg), 1.53; in test [3] (setting [4]), −7.05; in test [3] (setting [5]), −8.36; in test [3] (setting [6]) it was −9.13. Further, the “Avg. Log CFU/g (kidney pair)” value in test [2] (dose 15 mg/kg) came out at 2.60 Log CFU/g; in test [2] (dose 30 mg/kg) it was 1.45 Log CFU/g. Besides, the “CFU count reduction in comparison to the vehicle control group” value (“CFU count reduction in comparison” for short) in test [3] (dose 4 mg/kg SC BID) is recorded as 7 log 10. Also, the “Avg. Log CFU/g thigh” value in test [3] (dose 4 mg/kg SC BID) was determined as 2.47 Log CFU/g; in test [3] (dose 16 mg/kg SC BID) it was 1.15 Log CFU/g; in test [3] (dose 64 mg/kg SC BID), 0.38 Log CFU/g. This compound also came in with a survival rate in test [3] of 100%.

On to `N=C(NCCN)NC1C(O)[C@@H](CO)OC(OC2C(F)[C@H](O[C@H]3OC(CN)[C@@H](O)CC3N)C(N)C[C@H]2NC(=O)[C@@H](O)CCN)[C@@H]1O` (some centres unmarked) [ABX5020, Tobra-AHB-F-Gua-2-amino-ethyl], for which the “Change from vehicle group” value in test [3] (setting [4]) was −8.04; in test [3] (setting [5]), −8.14; in test [3] (setting [6]), −9.32. Also, the results for the “Avg. Log CFU/g thigh” value in test [3] (dose 4 mg/kg SC BID), in test [3] (dose 16 mg/kg SC BID) and in test [3] (dose 64 mg/kg SC BID) were 1.47 Log CFU/g, 1.37 Log CFU/g and 0.19 Log CFU/g, respectively. In test [3], this compound displayed a survival rate of 100%.

Compound `N=C(NC[C@@H]1CCCN1)NC1[C@@H](O)C(OC2[C@@H](F)[C@H](O[C@H]3OC(CN)[C@@H](O)CC3N)C(N)C[C@H]2NC(=O)[C@@H](O)CCN)O[C@H](CO)[C@H]1O` (stereo partly drawn) [ABX5026, Tobra-AHB-F-Gua (S) pyrrolidine-2-yl-methyl] gave an MIC in test [1] of 1 µg/mL (≈ 1.44 µM). For the same compound, the “CFU count reduction in kidneys in comparison to the vehicle control group” value in test [2] (dose 15 mg/kg SC QD) turned out to be 1.58 log 10; in test [2] (dose 30 mg/kg SC QD) it was 1.72 log 10. Besides, the “Change from vehicle group” value in test [2] (dose 15 mg/kg) is 1.58; in test [2] (dose 30 mg/kg) it was 1.22; in test [3] (setting [7]) it was 1.80; in test [3] (setting [8]) it was 6.44; in test [3] (setting [9]) it was 7.56. The figures for the “Avg. Log CFU/g (kidney pair)” value in test [2] (dose 15 mg/kg) and in test [2] (dose 30 mg/kg) were 1.40 Log CFU/g and 2.26 Log CFU/g, respectively. In addition, the “samples with CFU counts below the limit of detection” value in test [2] (kidneys, LOD=2.0×10^2 CFU/mL) is “five out of eight”. Besides, the “Avg. Log CFU/g” value in test [3] (dose 0.25 mg/kg, SC, BID) stood at 7.98 Log CFU/g; in test [3] (dose 1 mg/kg, SC, BID), 3.34 Log CFU/g; in test [3] (dose 4 mg/kg, SC, BID), 2.22 Log CFU/g. In addition, the “CFU count reduction in comparison” value in test [3] (dose 1 mg/kg SC BID) was more than 6 log 10.

As to `N=C(NC[C@@H]1CCNC1)NC1[C@@H](O)C(OC2[C@@H](F)[C@H](O[C@H]3OC(CN)[C@@H](O)CC3N)C(N)C[C@H]2NC(=O)[C@@H](O)CCN)O[C@H](CO)[C@H]1O` (stereo partly drawn) [ABX5039, Tobra-AHB-F-Gua (R) pyrrolidine-3-ylmethyl], the “Change from vehicle group” value in test [3] (setting [7]) stood at 0.70; in test [3] (setting [8]), 4.71; in test [3] (setting [9]) it was 7.55. Also, the “Avg. Log CFU/g” value in test [3] (dose 0.25 mg/kg, SC, BID) was found to be 9.08 Log CFU/g; in test [3] (dose 1 mg/kg, SC, BID) it was 5.07 Log CFU/g; in test [3] (dose 4 mg/kg, SC, BID) it was 2.23 Log CFU/g. For the same compound, the “CFU count reduction in comparison” value in test [3] (dose 1 mg/kg SC BID) is given as more than 4 log 10.
